Measurements reported in the NIST ThermoML archive (doi:10.1016/j.jct.2018.04.010).
Numbers after ± are expanded uncertainties.

Tests used:
[1] = xn = mol fraction of the nth substance listed; settings: 101 kPa, Liquid, Vibrating tube method, x2 = 0.333
[2] = 101 kPa, Liquid, Vibrating tube method

| mass density ([1]; 293.15 K) [kg/m3] | mass density ([1]; 303.15 K) [kg/m3] | mass density ([1]; 313.15 K) [kg/m3] | mass density ([1]; 323.15 K) [kg/m3] | mass density ([2]; 293.15 K) [kg/m3] | mass density ([2]; 303.15 K) [kg/m3] | mass density ([2]; 313.15 K) [kg/m3] | mass density ([2]; 323.15 K) [kg/m3] | Structure (SMILES) |
| --- | --- | --- | --- | --- | --- | --- | --- | --- |
| 1199.7 ± 2 | 1194.2 ± 2 | 1188.6 ± 2 | 1183.2 ± 2 |  |  |  |  | NC(N)=O [urea] + C[N+](C)(C)CCO.[Cl-] |
|  |  |  |  | 792.6 ± 2 | 783 ± 2 | 773.5 ± 2 | 764 ± 2 | CO [methanol] |
